Measured values taken from patent publication US20230174485A1, “LIPOXYGENASE INHIBITORS” (SRI International, priority 2020, published 2023).
“And” between values parts separate entries of the source, which are not always exact repeats. Identical values can stand only once. Like-named read-outs stand apart in the source and are kept apart here.

Legend:
Type in all cases: biochemical
[1] = target: T1, recombinant 15-LOX enzyme (Homo sapiens, UniProt P16050); assay: 15-LOX fluorescent assay; details: several values in one cell = repeat determinations
T1 sequence (P16050 1-662): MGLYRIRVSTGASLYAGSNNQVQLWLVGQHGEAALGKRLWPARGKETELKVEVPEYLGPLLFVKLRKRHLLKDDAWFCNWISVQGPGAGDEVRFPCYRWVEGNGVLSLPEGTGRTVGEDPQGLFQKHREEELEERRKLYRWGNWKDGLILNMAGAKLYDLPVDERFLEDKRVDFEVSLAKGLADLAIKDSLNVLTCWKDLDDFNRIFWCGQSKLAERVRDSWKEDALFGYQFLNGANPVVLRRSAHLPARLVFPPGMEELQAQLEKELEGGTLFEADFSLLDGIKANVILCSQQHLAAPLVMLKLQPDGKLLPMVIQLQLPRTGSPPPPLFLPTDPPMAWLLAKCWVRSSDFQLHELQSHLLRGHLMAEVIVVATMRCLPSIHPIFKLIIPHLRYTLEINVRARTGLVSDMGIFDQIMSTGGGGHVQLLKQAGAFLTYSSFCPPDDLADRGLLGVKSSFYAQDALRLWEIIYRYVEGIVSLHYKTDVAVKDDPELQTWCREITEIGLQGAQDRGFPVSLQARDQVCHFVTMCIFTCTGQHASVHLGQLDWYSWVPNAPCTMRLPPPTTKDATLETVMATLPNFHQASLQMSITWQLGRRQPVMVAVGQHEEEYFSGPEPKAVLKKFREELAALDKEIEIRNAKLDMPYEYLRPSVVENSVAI
Protocol: (§1) 12-LOX/15-LOX Fluorescent Assay
(§2) The enzyme assay (100 ul) contained 50 mM Tris, pH 7.5, 0.05% Tween-20, 20 μM AA/LA, 1 μM DHR123, and 100 nM recombinant 12-LOX enzyme/50 nM recombinant 15-LOX enzyme. Inhibitors (dissolved in DMSO) were plated at 1 μL into 96-well assay microplates followed by a 40 μL addition of a solution containing 12-LOX/15-LOX enzyme. Enzyme was pre-incubated with compounds for 15 mins. The assay was initiated by the addition of a 40 μL substrate solution containing AA/LA, and 20 μL addition of a solution containing DHR123. Enzymatic reaction proceeded for 30 min with kinetic reading at 500 nm excitation & 536 nm emission in SpectraMax Paradigm (MolecularDevice). Percent inhibition was calculated for each compound dose for IC50 curve fitting using 4 Parameter Logistic Model or Sigmoidal Dose-Response Model.

[2] = target: T2, recombinant 5-LOX (Homo sapiens, UniProt P09917); assay: 5-LOX fluorescent assay; details: several values in one cell = repeat determinations; read-out: IC50 (μM) values for in vitro lipoxygenase inhibition, 5-LOX
T2 sequence (P09917 1-674): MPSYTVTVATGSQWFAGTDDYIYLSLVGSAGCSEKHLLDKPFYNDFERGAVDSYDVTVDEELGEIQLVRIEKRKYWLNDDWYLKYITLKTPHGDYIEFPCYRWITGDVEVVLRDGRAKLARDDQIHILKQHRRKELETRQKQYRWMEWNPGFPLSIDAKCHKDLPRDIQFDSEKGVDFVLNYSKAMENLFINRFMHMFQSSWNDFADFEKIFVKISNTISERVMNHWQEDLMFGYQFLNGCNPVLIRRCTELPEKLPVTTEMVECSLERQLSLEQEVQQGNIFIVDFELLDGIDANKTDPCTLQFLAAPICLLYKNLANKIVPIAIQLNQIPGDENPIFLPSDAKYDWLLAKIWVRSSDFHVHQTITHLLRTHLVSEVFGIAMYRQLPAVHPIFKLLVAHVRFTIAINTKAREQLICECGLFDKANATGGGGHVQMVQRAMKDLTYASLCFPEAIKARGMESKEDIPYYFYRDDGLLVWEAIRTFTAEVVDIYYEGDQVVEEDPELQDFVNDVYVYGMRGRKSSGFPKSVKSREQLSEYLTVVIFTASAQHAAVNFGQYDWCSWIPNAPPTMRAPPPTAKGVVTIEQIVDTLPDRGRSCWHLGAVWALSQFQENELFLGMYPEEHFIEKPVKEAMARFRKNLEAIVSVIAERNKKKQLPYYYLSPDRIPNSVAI
Protocol: 5-LOX FI assay Fluorescent Assay
The enzyme assay (100 μL) contained 50 mM Tris, pH 7.5, 0.1 mM EDTA, 0.3 mM CaCl2, 20 μM AA, 100 μM ATP, 1 μM DHR123, and recombinant 5-LOX cell lysate (0.5 μL/100 μL). Inhibitors (dissolved in DMSO) were plated at 1 μL into 96-well assay microplates followed by a 40 μL addition of a solution containing 5-LOX enzyme. Enzyme was pre-incubated with compounds for 15 mins. The assay was initiated by the addition of a 40 μL substrate solution containing AA and ATP, and 20 μL addition of a solution containing DHR123. Enzymatic reaction proceeded for 30 min with kinetic reading at 500 nm excitation & 536 nm emission in SpectraMax Paradigm (MolecularDevice). Percent inhibition was calculated for each compound dose for IC50 curve fitting using 4 Parameter Logistic Model or Sigmoidal Dose-Response Model.

[3] = target: T3, recombinant 12-LOX enzyme (Homo sapiens, UniProt P18054); assay: 12-LOX fluorescent assay; details: several values in one cell = repeat determinations
T3 sequence (P18054 1-663): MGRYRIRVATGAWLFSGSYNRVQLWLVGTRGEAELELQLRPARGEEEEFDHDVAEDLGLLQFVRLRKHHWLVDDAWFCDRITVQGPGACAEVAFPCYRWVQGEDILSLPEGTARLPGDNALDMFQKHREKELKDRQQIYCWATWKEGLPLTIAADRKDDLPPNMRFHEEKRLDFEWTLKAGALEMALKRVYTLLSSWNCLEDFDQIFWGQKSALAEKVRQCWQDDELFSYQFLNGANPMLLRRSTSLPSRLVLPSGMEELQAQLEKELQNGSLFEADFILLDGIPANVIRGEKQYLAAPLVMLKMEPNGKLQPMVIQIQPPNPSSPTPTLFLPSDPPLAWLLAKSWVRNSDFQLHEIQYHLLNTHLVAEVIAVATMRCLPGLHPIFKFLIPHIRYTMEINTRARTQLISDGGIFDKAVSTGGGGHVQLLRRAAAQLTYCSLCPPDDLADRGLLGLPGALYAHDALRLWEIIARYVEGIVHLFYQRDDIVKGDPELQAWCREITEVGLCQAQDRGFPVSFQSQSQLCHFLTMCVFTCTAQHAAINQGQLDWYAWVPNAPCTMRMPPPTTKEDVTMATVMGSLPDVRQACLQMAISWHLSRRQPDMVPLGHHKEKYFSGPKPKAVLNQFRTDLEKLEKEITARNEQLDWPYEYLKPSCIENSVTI
Protocol: as §1, §2

[4] = read-out: IC50 (μM) values for in vitro lipoxygenase inhibition, 15-LOX
[5] = read-out: IC50 (μM) values for in vitro lipoxygenase inhibition, 12-LOX
[6] = IC50 (μM) values for in vitro lipoxygenase inhibition, 15-LOX

SMILES | IC50 [1, 4] | IC50 [2] | IC50 [3, 5] | IC50 [1, 6] [µM] | IC50 ([3]; IC50 (μM) values for in vitro lipoxygenase inhibition, 12-LOX) [µM]
CN(C)CCCn1c2c(c3ccccc31)CC(Nc1ccccc1)CC2 (stereo not drawn) [SS20308-0159-01, 9-(3-(dimethylamino)propyl)-N-phenyl-2,3,4,9-tetrahydro-1H-carbazol-3-amine] | 1.59 µM | 1.85 µM | 2.75 µM | – | –
c1ccc2c(c1)[nH]c1cc3c(cc12)CCN3CCn1cncn1 [SS20308-0180-01, 1-(2-(1H-1,2,4-triazol-1-yl)ethyl)-1,2,3,9-tetrahydropyrrolo[2,3-b]carbazole] | 0.39 µM and 0.51 µM | 0.44 µM and 0.81 µM | 0.03 µM and 0.08 µM | – | –
CN(C)CC1(COc2c3[nH]c4ccc(F)cc4c3c(F)c3[nH]c4ccc(F)cc4c23)COC1 [SS20308-0185-01, N,N-dimethyl-1-(3-((2,8,12-trifluoro-5,11-dihydroindolo[3,2-b]carbazol-6-yloxy)methyl)oxetan-3-yl)methanamine] | 0.05 µM | 0.08 µM | 0.1 µM | – | –
Fc1ccc2[nH]c3cc(-c4ccccc4)c(NCC4(Cn5cncn5)COC4)cc3c2c1 [SS20308-0186-01, N-((3-((1H-1,2,4-triazol-1-yl)methyl)oxetan-3-yl)methyl)-6-fluoro-2-phenyl-9H-carbazol-3-amine] | 0.05 µM and 0.02 µM | 0.04 µM and 0.01 µM | 0.03 µM and 0.01 µM | – | –
Fc1ccc2[nH]c3cc4c(c(F)c3c2c1)CCN4CCn1cncn1 [SS20308-0207-01, 1-(2-(1H-1,2,4-triazol-1-yl)ethyl)-4,6-difluoro-1,2,3,9-tetrahydropyrrolo[2,3-b]carbazole] | 1.15 µM | 0.59 µM | 0.1 µM | – | –
Fc1ccc2[nH]c3cc4c(cc3c2c1)CCN4CCn1cncn1 [SS20308-0208-01, 1-(2-(1H-1,2,4-triazol-1-yl)ethyl)-6-fluoro-1,2,3,9-tetrahydropyrrolo[2,3-b]carbazole] | 0.18 µM | 0.2 µM | 0.01 µM | – | –
CC1(C)CN(CCn2cncn2)c2cc3[nH]c4ccccc4c3cc21 [SS20308-0209-01, 1-(2-(1H-1,2,4-triazol-1-yl)ethyl)-3,3-dimethyl-1,2,3,9-tetrahydropyrrolo[2,3-b] carbazole] | 1.12 µM | 0.92 µM | 0.03 µM | – | –
c1ccc2c(c1)CCc1ccc(NCCn3cncn3)cc1N2 [SS20308-0224-01, N-(2-(1H-1,2,4-triazol-1-yl)ethyl)-10,11-dihydro-5H-dibenzo[b,f]azepin-3-amine] | 1.12 µM | 0.22 µM | 0.11 µM | – | –

Other lines, results leading:

IC50 [1, 4] | IC50 [2] | IC50 [3, 5] | IC50 [1, 6] [µM] | IC50 ([3]; IC50 (μM) values for in vitro lipoxygenase inhibition, 12-LOX) [µM] | SMILES
0.71 µM | 1.04 µM | 0.83 µM | – | – | CN(C)CCOc1cc2c(cc1CNc1ccccc1)[nH]c1ccccc12 [SS20308-0119-01, N-((3-(2-(dimethylamino)ethoxy)-9H-carbazol-2-yl)methyl)aniline]
0.86 µM | 0.53 µM | 1.16 µM | – | – | CN(C)CCOc1c2[nH]c(-c3ccccc3)nc2c(F)c2c1[nH]c1ccccc12 [SS20308-0121-01, 2-(10-fluoro-2-phenyl-3,5-dihydroimidazo[4,5-b]carbazol-4-yloxy)-N,N-dimethylethanamine]
– | 1.02 µM | 0.87 µM | 1.38 | – | CN(C)CCOc1c2nc(-c3ccccc3)[nH]c2cc2[nH]c3ccccc3c12 [SS20308-0122-01, N,N-dimethyl-2-(2-phenyl-3,5-dihydroimidazo[4,5-b]carbazol-10-yloxy)ethanamine]
– | 0.04 µM | – | 0.04 | 0.04 | CN(C)C/C=C\c1c2[nH]c3ccccc3c2cc2[nH]c3ccccc3c12 [SS20308-0126-01, (Z)-3-(5,11-dihydroindolo[3,2-b]carbazol-6-yl)-N,N-dimethylprop-2-en-1-amine]
0.5 µM | 0.72 µM | 0.53 µM | – | – | COc1c2[nH]c(-c3ccccc3)nc2c(F)c2c1[nH]c1ccccc12 [SS20308-0137-01, 10-fluoro-4-methoxy-2-phenyl-3,5-dihydroimidazo[4,5-b]carbazole]
0.44 µM | 1.06 µM | 0.35 µM | – | – | Fc1ccc2[nH]c3c(NCCn4cncn4)c(-c4ccccc4)ccc3c2c1 [SS20308-0154-01, N-(2-(1H-1,2,4-triazol-1-yl)ethyl)-6-fluoro-2-phenyl-9H-carbazol-1-amine]
1.55 µM | 3.75 µM | 3.16 µM | – | – | c1ccc(NC2CCc3[nH]c4ccccc4c3C2)cc1 (stereo not drawn) [SS20308-0158-01, N-phenyl-2,3,4,9-tetrahydro-1H-carbazol-3-amine]
1.53 µM | 4.38 µM | 2.17 µM | – | – | CN(C)CCCc1cc(-c2cccc3c2NCC3)cc2[nH]c3ccccc3c12 [SS20308-0170-01, 3-(2-(indolin-7-yl)-9H-carbazol-4-yl)-N,N-dimethylpropan-1-amine]
– | 0.77 µM | 0.31 µM | 1.4 | – | CN(CCn1cncn1)c1cc2c(cc1-c1ccccc1)[nH]c1ccc(F)cc12 [SS20308-0182-01, N-(2-(1H-1,2,4-triazol-1-yl)ethyl)-6-fluoro-N-methyl-2-phenyl-9H-carbazol-3-amine]
13.1 µM | 5.01 µM | 50.9 µM | – | – | CN(C)CCC(c1ccccc1)c1ccc2[nH]c3ccccc3c2c1 (stereo not drawn) [SS20308-0183-01, 3-(9H-carbazol-3-yl)-N,N-dimethyl-3-phenylpropan-1-amino]
4.53 µM | 10.9 µM | 14 µM | – | – | CN(C)C(=O)CC(c1ccccc1)c1ccc2[nH]c3ccccc3c2c1 (stereo not drawn) [SS20308-0222-01, 3-(9H-carbazol-3-yl)-N,N-dimethyl-3-phenylpropanamide]
